Among the data in BindingDB's records for doi:10.1021/jm990266k (Warner-Lambert, 1999) are IC50 values, retold here.

This experiment can be described thus: Compound was tested for the inhibition of [3H]-thymidine uptake in CHO p-5 cells transfected with human Dopamine receptor D4.2.

Structures are written as SMILES.

Regarding `Cc1ccc(N2CCN(Cc3ccc4oc(=O)ccc4c3)CC2)cc1` [6-(4-p-Tolyl-piperazin-1-ylmethyl)-chromen-2-one], the half-maximal inhibitory concentration (IC50) is over 1000 nM.

`Cc1ccc(N2CCN(Cc3ccc4ccc(=O)oc4c3)CC2)cc1Cl` [7-[4-(3-Chloro-4-methyl-phenyl)-piperazin-1-ylmethyl]-chromen-2-one] had a concentration for half-maximal inhibition (IC50) of 5.4 nM.
